Experimental data: article PMC9060145 (Skin Health and Disease, 2021)
pEC50, pIC50: −log10 of the molar value. Blank lines part the entries; values can stand above or below the molecule they belong to.

How the values were obtained:
MR = biological target: T1, MR (Homo sapiens, UniProt P08235); test: Nuclear receptor profiling, luciferase reporter in recombinant HeLa cells; type: cell-based; conditions: IA = Inactive
T1 construct: expressed in transfected cells; host or cells: recombinant HeLa cell lines
T1 sequence (P08235 1-984): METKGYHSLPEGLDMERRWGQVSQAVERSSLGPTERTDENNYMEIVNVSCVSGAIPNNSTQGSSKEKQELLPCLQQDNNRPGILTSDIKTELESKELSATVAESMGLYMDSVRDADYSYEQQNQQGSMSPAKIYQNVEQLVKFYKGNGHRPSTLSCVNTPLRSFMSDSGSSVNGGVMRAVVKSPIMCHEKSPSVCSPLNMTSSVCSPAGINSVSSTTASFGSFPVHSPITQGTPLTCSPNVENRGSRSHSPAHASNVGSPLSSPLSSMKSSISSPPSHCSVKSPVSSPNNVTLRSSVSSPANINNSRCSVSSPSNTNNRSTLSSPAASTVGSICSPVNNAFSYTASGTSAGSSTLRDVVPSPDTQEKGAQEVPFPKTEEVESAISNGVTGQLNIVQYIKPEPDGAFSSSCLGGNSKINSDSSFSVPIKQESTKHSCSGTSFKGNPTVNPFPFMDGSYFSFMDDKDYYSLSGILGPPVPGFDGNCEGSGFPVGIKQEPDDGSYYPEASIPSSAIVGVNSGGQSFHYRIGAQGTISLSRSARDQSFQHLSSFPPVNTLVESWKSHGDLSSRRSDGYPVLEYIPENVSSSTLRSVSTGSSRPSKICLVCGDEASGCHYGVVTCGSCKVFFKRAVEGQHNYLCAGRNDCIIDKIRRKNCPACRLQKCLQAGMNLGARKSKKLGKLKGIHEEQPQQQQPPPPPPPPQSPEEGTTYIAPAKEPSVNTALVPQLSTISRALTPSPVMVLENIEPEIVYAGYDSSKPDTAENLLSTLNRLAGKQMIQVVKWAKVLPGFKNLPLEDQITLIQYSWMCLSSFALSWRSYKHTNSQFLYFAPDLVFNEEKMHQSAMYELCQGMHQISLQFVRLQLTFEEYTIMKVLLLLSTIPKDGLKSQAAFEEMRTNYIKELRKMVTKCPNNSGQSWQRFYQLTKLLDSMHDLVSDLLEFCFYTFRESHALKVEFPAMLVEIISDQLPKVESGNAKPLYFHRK
Procedure: (§1) Nuclear receptor profiling, excluding retinoid X receptor (RXR), was previously described in detail.[24] Briefly, profiling was done using the Steady‐Glo luciferase assay kit (Promega, E2550) in recombinant HeLa cell lines expressing the respective receptors. Compounds were treated at nine doses (n = 2/dose) from 0.00015–10 µM. Data were normalized to minimum and maximum controls and 4‐parameter logistic regression fitting (Figure S2) was performed in XLfit software (IDBS).

LXRβ = biological target: T2, LXRβ (Homo sapiens, UniProt P55055); test: as above; type: cell-based
T2 construct: expressed in transfected cells; host or cells: recombinant HeLa cell lines
T2 sequence (P55055 1-460): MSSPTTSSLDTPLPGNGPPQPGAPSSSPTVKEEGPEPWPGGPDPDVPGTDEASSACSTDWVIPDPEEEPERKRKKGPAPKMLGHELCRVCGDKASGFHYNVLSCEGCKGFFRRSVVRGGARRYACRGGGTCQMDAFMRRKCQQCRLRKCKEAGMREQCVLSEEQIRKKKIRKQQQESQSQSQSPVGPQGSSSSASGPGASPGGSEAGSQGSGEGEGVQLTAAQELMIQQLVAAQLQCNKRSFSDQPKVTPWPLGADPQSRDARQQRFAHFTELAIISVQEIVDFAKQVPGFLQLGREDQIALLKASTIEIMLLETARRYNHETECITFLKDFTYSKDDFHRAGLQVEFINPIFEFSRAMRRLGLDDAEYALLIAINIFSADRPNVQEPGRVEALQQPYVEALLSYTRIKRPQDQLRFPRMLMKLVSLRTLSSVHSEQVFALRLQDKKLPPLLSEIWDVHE
Procedure: as §1

CYP19 = biological target: T3, CYP19 (Homo sapiens, UniProt P11511); test: Qualitative CYP19 screening, CYP19 Supersomes, HPLC-MS/MS; type: biochemical
T3 construct: purchased Corning (Woburn, MA)
T3 sequence (P11511 1-503): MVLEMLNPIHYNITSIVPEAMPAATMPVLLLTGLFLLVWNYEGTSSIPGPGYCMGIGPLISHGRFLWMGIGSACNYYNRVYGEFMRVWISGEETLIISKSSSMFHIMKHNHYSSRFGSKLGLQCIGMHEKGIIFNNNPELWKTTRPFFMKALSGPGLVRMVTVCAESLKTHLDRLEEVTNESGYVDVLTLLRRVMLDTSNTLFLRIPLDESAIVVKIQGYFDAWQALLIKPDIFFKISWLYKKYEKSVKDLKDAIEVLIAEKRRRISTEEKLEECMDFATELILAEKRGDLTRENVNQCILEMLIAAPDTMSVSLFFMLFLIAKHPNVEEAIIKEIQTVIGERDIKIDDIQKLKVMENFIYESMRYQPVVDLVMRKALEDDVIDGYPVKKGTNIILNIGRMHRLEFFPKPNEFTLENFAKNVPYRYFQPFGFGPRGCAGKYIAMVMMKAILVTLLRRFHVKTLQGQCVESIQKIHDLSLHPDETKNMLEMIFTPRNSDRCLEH
Procedure: (§2) CYP450 inhibition assays (excluding CYP19 and 1 µM CYP2C8) were performed as previously described.[31] Substrate metabolite formation was measured by HPLC‐MS/MS. Percent of control activity was determined by comparing metabolite peak areas with and without test compound. Qualitative screening of CYP2C8 (1 µM) and CYP19 is described in detail in Supporting Information. Reference compound IC50 values were determined by non‐linear regression analysis using Hill equation curve fitting.
In vitro CYP19 screening was carried out in triplicate using a modified HPLC-MS/MS protocol based on methodology provided by Admescope Ltd. DMSO stock solutions of test compounds, positive control liarozole, androstenedione substrate and solvent control were diluted with 100 mM phosphate buffer (pH 7.4) such that DMSO content in final assay conditions was 1% in a volume of 200 µL. Briefly, to a microfuge tube was added 1 µM substrate, 1 mM NAPDH, and 0.1-1 µM test compounds (final concentrations after enzyme addition) in phosphate buffer before pre-incubating for 2 min at 37 °C. CYP19/CYP450 reductase Supersomes™ enzyme (50 µL, 1.5 pmol/mL) was added to each tube, gently mixed, then incubated at 37 °C for 30 min. The reaction was quenched with an equal volume of acetonitrile containing cortisone internal standard (100 nM). […]

RARα = biological target: T4, RARα (Homo sapiens, UniProt P10276); test: Nuclear receptor profiling, luciferase reporter in recombinant HeLa cells; type: cell-based
T4 construct: expressed in transfected cells; host or cells: recombinant HeLa cell lines
T4 sequence (P10276 1-462): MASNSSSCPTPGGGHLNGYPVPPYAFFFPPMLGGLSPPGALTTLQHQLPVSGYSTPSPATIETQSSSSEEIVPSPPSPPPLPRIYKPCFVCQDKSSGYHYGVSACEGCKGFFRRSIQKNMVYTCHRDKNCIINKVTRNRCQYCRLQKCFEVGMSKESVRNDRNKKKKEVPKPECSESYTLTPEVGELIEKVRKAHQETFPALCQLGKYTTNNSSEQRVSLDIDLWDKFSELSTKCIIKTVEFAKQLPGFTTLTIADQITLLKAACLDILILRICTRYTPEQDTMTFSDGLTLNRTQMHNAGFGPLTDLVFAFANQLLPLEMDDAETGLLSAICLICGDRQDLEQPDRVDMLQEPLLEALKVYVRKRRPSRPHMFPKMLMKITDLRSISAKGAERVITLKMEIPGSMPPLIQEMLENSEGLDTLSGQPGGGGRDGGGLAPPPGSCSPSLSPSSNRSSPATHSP
Procedure: as §1

RARβ = biological target: T5, RARβ (Homo sapiens, UniProt P10826); test: as above; type: cell-based
T5 construct: expressed in transfected cells; host or cells: recombinant HeLa cell lines
T5 sequence (P10826 1-455): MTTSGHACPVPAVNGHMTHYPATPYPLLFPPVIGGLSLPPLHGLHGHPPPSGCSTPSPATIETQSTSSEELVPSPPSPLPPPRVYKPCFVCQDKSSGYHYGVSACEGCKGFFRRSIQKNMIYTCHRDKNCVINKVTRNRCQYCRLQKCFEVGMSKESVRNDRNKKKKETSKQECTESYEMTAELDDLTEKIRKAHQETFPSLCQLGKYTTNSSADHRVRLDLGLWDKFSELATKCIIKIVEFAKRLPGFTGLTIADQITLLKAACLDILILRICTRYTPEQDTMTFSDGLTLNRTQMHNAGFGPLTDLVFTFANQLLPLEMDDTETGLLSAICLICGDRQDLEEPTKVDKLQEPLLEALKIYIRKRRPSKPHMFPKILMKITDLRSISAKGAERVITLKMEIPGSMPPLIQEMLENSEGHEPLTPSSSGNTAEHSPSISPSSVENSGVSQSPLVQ
Procedure: as §1

RARγ = biological target: T6, RARγ (Homo sapiens, UniProt P13631); test: as above; type: cell-based; conditions: IA = Inactive
T6 construct: expressed in transfected cells; host or cells: recombinant HeLa cell lines
T6 sequence (P13631 1-454): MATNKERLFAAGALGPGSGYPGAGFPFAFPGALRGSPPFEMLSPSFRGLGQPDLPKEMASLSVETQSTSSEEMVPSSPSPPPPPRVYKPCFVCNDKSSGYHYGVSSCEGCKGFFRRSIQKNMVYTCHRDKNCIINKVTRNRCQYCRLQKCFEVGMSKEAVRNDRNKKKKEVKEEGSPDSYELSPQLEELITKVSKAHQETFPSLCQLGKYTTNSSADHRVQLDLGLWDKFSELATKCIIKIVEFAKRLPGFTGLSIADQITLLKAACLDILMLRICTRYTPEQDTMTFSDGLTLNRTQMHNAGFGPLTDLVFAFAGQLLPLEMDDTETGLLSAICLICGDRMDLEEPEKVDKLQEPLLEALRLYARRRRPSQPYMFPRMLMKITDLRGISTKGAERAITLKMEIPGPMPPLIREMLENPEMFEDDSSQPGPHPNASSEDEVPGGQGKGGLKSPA
Procedure: as §1

CYP2B6 = biological target: T7, CYP2B6 (Homo sapiens, UniProt P20813); test: CYP450 inhibition assay, human liver microsomes; type: biochemical
T7 construct: from tissue; host or cells: human liver microsomes (per the earlier reading and the cited method)
T7 sequence (P20813 1-491): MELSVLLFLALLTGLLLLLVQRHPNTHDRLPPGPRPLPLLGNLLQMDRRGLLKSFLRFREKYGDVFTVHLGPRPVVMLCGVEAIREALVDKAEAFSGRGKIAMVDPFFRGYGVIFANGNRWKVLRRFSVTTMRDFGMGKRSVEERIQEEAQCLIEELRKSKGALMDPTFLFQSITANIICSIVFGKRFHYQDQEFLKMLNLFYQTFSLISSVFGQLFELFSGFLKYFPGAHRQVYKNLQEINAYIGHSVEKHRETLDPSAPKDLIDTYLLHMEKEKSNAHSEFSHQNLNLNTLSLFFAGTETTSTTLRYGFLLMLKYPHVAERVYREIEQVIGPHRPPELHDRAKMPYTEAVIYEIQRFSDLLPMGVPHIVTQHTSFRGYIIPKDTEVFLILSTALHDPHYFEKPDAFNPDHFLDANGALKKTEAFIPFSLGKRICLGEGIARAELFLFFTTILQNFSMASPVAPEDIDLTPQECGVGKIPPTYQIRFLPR
Procedure: as §2

CYP2C19 = biological target: T8, CYP2C19 (Homo sapiens, UniProt P33261); test: CYP450 inhibition assay, human liver microsomes; type: biochemical; conditions: substrate omeprazole
T8 construct: from tissue; host or cells: human liver microsomes (per the earlier reading and the cited method)
T8 sequence (P33261 whole entry): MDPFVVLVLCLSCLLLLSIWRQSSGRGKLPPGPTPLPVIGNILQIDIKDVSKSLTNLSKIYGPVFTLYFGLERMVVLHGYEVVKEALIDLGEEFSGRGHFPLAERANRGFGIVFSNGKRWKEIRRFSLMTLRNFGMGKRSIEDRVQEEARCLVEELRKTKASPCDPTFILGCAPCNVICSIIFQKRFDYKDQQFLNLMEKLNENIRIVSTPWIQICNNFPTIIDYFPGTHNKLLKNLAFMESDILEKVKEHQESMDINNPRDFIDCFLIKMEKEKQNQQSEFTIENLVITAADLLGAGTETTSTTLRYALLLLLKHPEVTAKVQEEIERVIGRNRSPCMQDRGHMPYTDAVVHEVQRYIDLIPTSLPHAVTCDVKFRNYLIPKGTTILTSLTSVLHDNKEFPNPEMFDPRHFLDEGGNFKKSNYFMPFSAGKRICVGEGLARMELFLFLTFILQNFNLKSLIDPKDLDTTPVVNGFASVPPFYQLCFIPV

Compound: C[C@]12C[C@H](O)[C@H]3[C@@H](CCC4=CC(=O)CC[C@@]43C)[C@@H]1CC[C@@H]2C(=O)CO [Corticosterone]
pEC50 (MR): 9.40

Compound: CC1(C)CCSc2ccc(C#Cc3ccc(C(=O)O)cn3)cc21 [Tazarotenic acid]
pEC50 (RARα): 7.49 | pEC50 (RARβ): 8.49 | pEC50 (RARγ): 7.60

Compound: COC(=O)[C@H](c1ccccc1Cl)N1CCc2sccc2C1 [clopidogrel]
pIC50 (CYP2B6): 6.43 | nH (hill coefficient) (CYP2B6; substrate bupropion): 1.3

Compound: CCN(CC)CC#CCOC(=O)C(O)(c1ccccc1)C1CCCCC1 (stereo not shown) [oxybutynin]
nH (hill coefficient) (CYP2C19): 0.8

The next lines start with the values.

pEC50 (LXRβ): 6.70
Compound: O=C(O)Cc1cccc(OCCCN(Cc2cccc(C(F)(F)F)c2Cl)CC(c2ccccc2)c2ccccc2)c1 [GW3965]

inhibition at 0.1 µM (CYP19; 0.1 µM compound, substrate androstenedione, calculated from decrease in metabolite formation, read-out: % Inhibition (reduction of CYP19 activity)): 61.1% | inhibition at 1 µM (CYP19; reference concentration 1000 nM, androstenedione 1000 nM, 30 min, 37°C): 83.8%
Compound: Clc1cccc(C(c2ccc3[nH]cnc3c2)n2ccnc2)c1 (stereo not shown) [Liarozole]
